Values of other authors as cited in patent EP3954777A1, “METHOD FOR ENZYMATIC DEGRADATION OF BITTER COMPOUNDS IN AGRO-INDUSTRIAL BY-PRODUCTS” (SternEnzym GmbH & Co. KG, priority 2020, dated 2022).

Tested on: human test persons
Details: bitter taste

## kaempferol 3-O-(2"'-O-sinapoyl-β-sophoroside)
Average (Hald et al., 2019)
  level that, on average, can be tasted by humans: 3.4 µmol/L
Lowest (Hald et al., 2019)
  lowest level detectable by human test persons: 1.7 µmol/L
